Data published in ChEMBL document CHEMBL1155684, “Preparation, stereochemistry, and cytotoxic activity of the melampolides from Mikania minima” (J Nat Prod, 2000).

How the values were obtained:
Format in all cases: functional, cell-based
P388 = assay: Cytotoxicity against mouse P388 cells
A549 = assay: Cytotoxicity against human A549 cells
HT-29 = assay: Cytotoxicity against human HT29 cells

Row | Compound | IC50 (P388) [nM] | IC50 (A549) [nM] | IC50 (HT-29) [nM]
1 | C=C1C(=O)O[C@@H]2/C=C(\COC(C)=O)CC/C=C(/CO)C[C@H](OC(C)=O)[C@@H]12 | 2700 | 5500 | 
2 | C=C1C(=O)O[C@@H]2/C=C(\COC(C)=O)CC/C=C(/C=O)C[C@H](OC(C)=O)[C@@H]12 | 1400 | 2800 | 2800
